The values that follow come from patent US11661430B2, “Tetrazole derivatives as TRPA1 inhibitors” (Boehringer Ingelheim International GmbH, priority 2020, dated 2023).

Broadly, the IC50 is the point on the concentration scale where inhibition reaches its midpoint.

One series has as its target T1, human TRPA1 ion channel (Homo sapiens, UniProt O75762).
T1 construct: host or cells: HEK293
The series can be described thus: Assay A: TRPA1 assay (FLIPR, AITC-induced intracellular calcium in HEK293 cells). The note with it: HEK293 cells over-expressing human TRPA1, AITC 10 μM, FLIPRtetra; read-out: hTRPA1 IC50. It counts as cell-based. How it is done:
A human HEK293 cell line over-expressing the human TRPA1 ion channel (Perkin Elmer, Product No. AX-004-PCL) is used as a test system for compound efficacy and potency. Compound activity is determined by measuring the effect of compounds on intracellular calcium concentration induced by AITC (Allylisothiocyanat) agonism in a FLIPRtetra system (Molecular Devices).
The cells are obtained as frozen cells in cryo-vials and stored until use at −150° C. Cells are grown in culture medium (MEM/EBSS medium with 10% FCS and 0.4 mg/ML Geneticin). […] For sub-culturing cells are detached from flasks by Versene. At the day before the assay, cells are detached, washed twice with medium (MEM/EBSS medium with 10% FCS) and 20000 cells in 20 μl/well are seeded to Poly D-Lysin biocoated 384-well plates (black, clear bottom, Cat. 356697) from Corning. Plates are incubated for 24 hours at 37° C./5% CO2 before use in the assay.
The test compounds are dissolved in 100% DMSO at a concentration of 10 mM and in a first step diluted in DMSO to a concentration of 5 mM, followed by serial dilution steps in 100% DMSO. Dilution factor and number of dilution steps may vary according to needs. Typically 8 different concentrations by 1:5 dilutions are prepared, further intermediate dilutions (1:20) of the substances are carried out with HBSS/HEPES buffer (1×HEPES, Cat. 14065 from Gibco, 20 mM HEPES, Cat. 83264 from SIGMA, 0.1% BSA Cat. 11926 from Invitrogen, pH 7.4
At the assay day cells are washed 3× with assay puffer, 20 μL buffer remaining in the wells after washing. 10 μL Ca6 kit (Cat. R8191 Molecular Devices) loading buffer in HBSS/HEPES is added to the cells and the plates are incubated with lid for 120 minutes at 37°/5% CO2. […] Finally 10 μL of the agonist AITC 50 μM dissolved in HBSS/HEPES buffer/0.05% DMSO (final concentration 10 μM) is added to the wells followed by an additional read on the FLIPRtetra device for 10 minutes. The area under the signal curve (AUC) after AITC addition is used for IC50/% inhibition calculations
Data Evaluation and Calculation:
Each assay microtiter plate contains wells with vehicle (1% DMSO) controls instead of compound as controls for AITC induced luminescence (100% CTL; high controls) and wells with vehicle controls without AITC as controls for non-specific changes in luminescence (0% CTL; low controls).
The analysis of the data is performed by the calculation of the area under signal curve of the individual wells. Based on this values the % value for the measurement of each substance concentration is calculated (AUC(sample)−AUC(low))*100/(AUC(high)−AUC(low)) using MegaLab software (in house development). The IC50 values are calculated from the % control values using MegaLab software. Calculation: [y=(a−d)/(1+(x/c)^b)+d], a=low value, d=high value; x=conc M; c=IC50 M; b=hill; y=% ctrl
(A change in cytosolic calcium serves as a functional read-out for many receptors and channels.)

Series [1] in a line: Assay B: Microsomal clearance. Type of series: in vitro ADME, human. The settings on record: pooled liver microsomes, 1 μM test compound, 37° C., NADPH. The procedure:
Assay B: Microsomal Clearance:
The metabolic degradation of the test compound is assayed at 37° C. with pooled liver microsomes. The final incubation volume of 100 μl per time point contains TRIS buffer pH 7.6 at RT (0.1 M), magnesium chloride (5 mM), microsomal protein (1 mg/ml) and the test compound at a final concentration of 1 μM.
Following a short preincubation period at 37° C., the reactions are initiated by addition of beta-nicotinamide adenine dinucleotide phosphate, reduced form (NADPH, 1 mM) and terminated by transferring an aliquot into solvent after different time points (0, 5, 15, 30, 60 min). Additionally, the NADPH-independent degradation is monitored in incubations without NADPH, terminated at the last time point. The [%] remaining test compound after NADPH independent incubation is reflected by the parameter c(control) (metabolic stability). The quenched incubations are pelleted by centrifugation (10000 g, 5 min). An aliquot of the supernatant is assayed by LC-MS/MS for the amount of parent compound. The half-life (t½ INVITRO) is determined by the slope of the semilogarithmic plot of the concentration-time profile.
The intrinsic clearance (CL_[…]) is calculated by considering the amount of protein in the incubation: CL_[…] [μl/min/mg protein]=(Ln 2/(half-life [min]*protein content [mg/ml]))*1000 CL_[…]_INVIVO [ml/min/kg]=(CL_[…] [μL/min/mg protein]×MPPGL [mg protein/g liver]×liver factor [g/kg bodyweight])/1000 Qh[%]=CL[ml/min/kg]/hepatic blood flow [ml/min/kg])
(§1) Hepatocellularity, human: 120×10e6 cells/g liver
(§2) Liver factor, human: 25.7 g/kg bodyweight
(§3) Blood flow, human: 21 ml/(min×kg)
In general terms: Liver microsomes are vesicles of endoplasmic reticulum, rich in cytochrome P450 enzymes.

Series [2] in a line: Assay C: Hepatocyte clearance. It counts as in vitro ADME, human. The settings on record: hepatocyte suspension, 1 μM test compound, 5% species serum, six hours. The procedure: Assay C: Hepatocyte Clearance
The metabolic degradation of the test compound is assayed in a hepatocyte suspension. Hepatocytes (cryopreserved) are incubated in Dulbecco's modified eagle medium (supplemented with 3.5 μg glucagon/500 mL, 2.5 mg insulin/500 mL and 3.75 mg/500 mL hydrocortison) containing 5% species serum.
The cells are incubated for six hours (incubator, orbital shaker) and samples (25 μl) are taken at 0, 0.5, 1, 2, 4 and 6 hours. Samples are transferred into acetonitrile and pelleted by centrifugation (5 min). The supernatant is transferred to a new 96-deepwell plate, evaporated under nitrogen and resuspended.
Decline of Parent Compound is Analyzed by HPLC-MS/MS
CLint is calculated as follows CL_[…]=Dose/AUC=(CO/CD)/(AUD+clast/k)×1000/60. C0: initial concentration in the incubation [μM], CD: cell density of vital cells [10e6 cells/mL], AUD: area under the data [μM×h], clast: concentration of last data point [μM], k: slope of the regression line for parent decline [h−1].
The calculated in vitro hepatic intrinsic clearance can be scaled up to the intrinsic in vivo hepatic Clearance and used to predict hepatic in vivo blood clearance (CL) by the use of a liver model (well stirred model). CL_[…]_INVIVO [ml/min/kg]=(CL_[…] [μL/min/10e6 cells]×hepatocellularity [10e6 cells/g liver]×liver factor [g/kg bodyweight])/1000 CL[ml/min/kg]=CL_[…]_INVIVO [ml/min/kg]×hepatic blood flow [ml/min/kg]/(CL_[…]_INVIVO [ml/min/kg]+hepatic blood flow [ml/min/kg]) Qh[%]=CL[ml/min/kg]/hepatic blood flow [ml/min/kg])
as §1, §2, §3

T1 sequence (O75762 whole entry): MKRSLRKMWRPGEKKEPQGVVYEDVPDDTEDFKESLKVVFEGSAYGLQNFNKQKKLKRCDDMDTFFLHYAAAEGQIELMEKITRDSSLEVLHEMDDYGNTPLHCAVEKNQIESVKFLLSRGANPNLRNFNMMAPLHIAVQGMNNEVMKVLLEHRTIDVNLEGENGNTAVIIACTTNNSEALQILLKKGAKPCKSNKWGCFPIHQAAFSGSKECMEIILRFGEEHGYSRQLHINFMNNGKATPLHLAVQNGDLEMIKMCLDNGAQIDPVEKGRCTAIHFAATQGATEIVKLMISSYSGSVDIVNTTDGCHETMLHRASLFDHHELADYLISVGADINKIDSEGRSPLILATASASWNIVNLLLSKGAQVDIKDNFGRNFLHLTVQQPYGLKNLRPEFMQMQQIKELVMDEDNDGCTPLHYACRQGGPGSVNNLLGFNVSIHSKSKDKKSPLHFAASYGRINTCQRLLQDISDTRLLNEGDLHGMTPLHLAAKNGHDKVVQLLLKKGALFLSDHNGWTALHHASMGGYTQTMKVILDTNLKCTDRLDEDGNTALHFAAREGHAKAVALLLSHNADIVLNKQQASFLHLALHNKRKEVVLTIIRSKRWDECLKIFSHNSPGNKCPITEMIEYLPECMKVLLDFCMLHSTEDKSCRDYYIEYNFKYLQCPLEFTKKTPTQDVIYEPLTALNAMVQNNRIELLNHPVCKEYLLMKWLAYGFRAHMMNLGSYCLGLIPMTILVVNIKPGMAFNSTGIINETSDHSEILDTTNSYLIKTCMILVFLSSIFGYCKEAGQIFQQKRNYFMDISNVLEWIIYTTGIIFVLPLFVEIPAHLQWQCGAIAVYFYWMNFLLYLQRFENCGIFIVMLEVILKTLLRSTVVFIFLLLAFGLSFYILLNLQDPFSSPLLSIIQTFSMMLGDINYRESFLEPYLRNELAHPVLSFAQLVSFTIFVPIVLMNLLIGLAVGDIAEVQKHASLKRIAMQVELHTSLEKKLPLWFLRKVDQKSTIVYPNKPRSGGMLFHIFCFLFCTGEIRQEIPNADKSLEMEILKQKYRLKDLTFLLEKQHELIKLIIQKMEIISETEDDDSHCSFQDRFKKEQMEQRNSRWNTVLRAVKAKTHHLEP

As to `NC(=O)c1csc2ncn(Cc3nnn(C[C@H](O)c4ccc(Cl)cc4)n3)c(=O)c12` [Example 1, 3-({2-[(2R)-2-(4-chlorophenyl)-2-hydroxyethyl]-2H-1,2,3,4-tetrazol-5-yl}methyl)-4-oxo-3H,4H-thieno[2,3-d]pyrimidine-5-carboxamide], the IC50 at human TRPA1 ion channel was determined as 28 nM. Moreover, the “human LM [% Qh]” value in series [1] is less than 23 % Qh. Also, the “human Hepatocytes [% Qh]” value in series [2] was less than 4 % Qh.

As for `NC(=O)c1csc2ncn(Cc3nnn(C[C@H](O)c4cc5ccc(F)cc5s4)n3)c(=O)c12` [Example 2], the “human LM [% Qh]” value in series [1] was 33 % Qh. Further, the “human Hepatocytes [% Qh]” value in series [2] was found to be 19 % Qh.

Consider `NC(=O)c1csc2ncn(Cc3nnn(C[C@H](O)c4cc5cc(Cl)ccc5o4)n3)c(=O)c12` [Example 3], for which, in series [1], the “human LM [% Qh]” value turned out to be 27 % Qh. Moreover, the “human Hepatocytes [% Qh]” value in series [2] worked out at 26 % Qh.

`NC(=O)c1csc2ncn(Cc3nnn(C[C@H](O)c4ccc5oc(F)cc5c4)n3)c(=O)c12` [Example 4]: in series [1], the “human LM [% Qh]” value is less than 23 % Qh. Also, in series [2], the “human Hepatocytes [% Qh]” value was determined as 6 % Qh.

For `NC(=O)c1csc2ncn(Cc3nnn(C[C@H](O)c4cc5ccccc5s4)n3)c(=O)c12` [Example 5], the “human LM [% Qh]” value in series [1] came out at 28 % Qh. The “human Hepatocytes [% Qh]” value in series [2] is reported as 20 % Qh.

Turning to `NC(=O)c1csc2ncn(Cc3nnn(C[C@H](O)c4cc5cc(F)ccc5o4)n3)c(=O)c12` [Example 6], the “human LM [% Qh]” value in series [1] is less than 23 % Qh. For the same compound, the “human Hepatocytes [% Qh]” value in series [2] amounted to 26 % Qh.

For `NC(=O)c1csc2ncn(Cc3nnn(C[C@H](O)c4cc(Cl)c(Cl)s4)n3)c(=O)c12` [Example 7], in series [1], the “human LM [% Qh]” value is 34 % Qh. Besides, in series [2], the “human Hepatocytes [% Qh]” value came to 41 % Qh.

On to `NC(=O)c1csc2ncn(Cc3nnn(C[C@H](O)c4cc5cc(Cl)c(F)cc5o4)n3)c(=O)c12` [Example 8], for which the IC50 at human TRPA1 ion channel is 26 nM. Moreover, in series [1], the “human LM [% Qh]” value was determined as 26 % Qh. Further, in series [2], the “human Hepatocytes [% Qh]” value was found to be 20 % Qh.

As to `NC(=O)c1csc2ncn(Cc3nnn(C[C@H](O)c4cc5ccccc5o4)n3)c(=O)c12` [Example 9], the IC50 on human TRPA1 ion channel was determined as 29 nM. Moreover, the “human LM [% Qh]” value in series [1] is on record as less than 23 % Qh. The “human Hepatocytes [% Qh]” value in series [2] was 14 % Qh.

For `Cc1ccc([C@@H](O)Cn2nnc(Cn3cnc4scc(C(N)=O)c4c3=O)n2)cc1` [Example 10], the IC50 on human TRPA1 ion channel amounted to 31 nM. For the same compound, in series [1], the “human LM [% Qh]” value was less than 23 % Qh. In addition, the “human Hepatocytes [% Qh]” value in series [2] is recorded as 8 % Qh.

With `NC(=O)c1csc2ncn(Cc3nnn(C[C@H](O)c4ccc(Cl)s4)n3)c(=O)c12` [Example 11], the IC50 on human TRPA1 ion channel came to 31 nM. For the same compound, the “human LM [% Qh]” value in series [1] was less than 23 % Qh. Also, the “human Hepatocytes [% Qh]” value in series [2] was 14 % Qh.

As to `NC(=O)c1csc2ncn(Cc3nnn(C[C@H](O)c4ccc(Br)cc4)n3)c(=O)c12` [Example 12], the IC50 at human TRPA1 ion channel was found to be 34 nM. In addition, the “human LM [% Qh]” value in series [1] is listed as less than 23 % Qh. For the same compound, the “human Hepatocytes [% Qh]” value in series [2] is recorded as less than 4 % Qh.

Regarding `NC(=O)c1csc2ncn(Cc3nnn(C[C@H](O)c4cc5cc(F)c(F)cc5o4)n3)c(=O)c12` [Example 13], at human TRPA1 ion channel, the IC50 worked out at 37 nM. Also, the “human LM [% Qh]” value in series [1] is on record as less than 23 % Qh. In addition, in series [2], the “human Hepatocytes [% Qh]” value was found to be 10 % Qh.

For `NC(=O)c1csc2ncn(Cc3nnn(C[C@H](O)c4cc5cccc(F)c5o4)n3)c(=O)c12` [Example 14], on human TRPA1 ion channel, the IC50 came to 41 nM. In series [1], the “human LM [% Qh]” value is on record as less than 23 % Qh. The “human Hepatocytes [% Qh]” value in series [2] is 14 % Qh.

With `NC(=O)c1csc2ncn(Cc3nnn(C[C@H](O)c4cc5cc(F)c(Cl)cc5o4)n3)c(=O)c12` [Example 15], the IC50 on human TRPA1 ion channel amounted to 65 nM. In addition, the “human LM [% Qh]” value in series [1] was less than 23 % Qh. In addition, the “human Hepatocytes [% Qh]” value in series [2] is 30 % Qh.

For the compound `N#Cc1cc2ccc([C@@H](O)Cn3nnc(Cn4cnc5scc(C(N)=O)c5c4=O)n3)cc2o1` [Example 16], at human TRPA1 ion channel, the IC50 amounted to 70 nM. The “human LM [% Qh]” value in series [1] is listed as less than 23 % Qh. Also, the “human Hepatocytes [% Qh]” value in series [2] was determined as 19 % Qh.

Regarding `COc1ccc([C@@H](O)Cn2nnc(Cn3cnc4scc(C(N)=O)c4c3=O)n2)cc1` [Example 17], the IC50 on human TRPA1 ion channel amounted to 131 nM. In addition, the “human LM [% Qh]” value in series [1] was less than 23 % Qh. Moreover, the “human Hepatocytes [% Qh]” value in series [2] is 18 % Qh.

With `N#Cc1ccc([C@@H](O)Cn2nnc(Cn3cnc4scc(C(N)=O)c4c3=O)n2)s1` [Example 18], at human TRPA1 ion channel, the IC50 came to 143 nM. In addition, the “human LM [% Qh]” value in series [1] was less than 23 % Qh. In series [2], the “human Hepatocytes [% Qh]” value was less than 4 % Qh.
